Assay results as given in patent US9920063B2, “Melampomagnolide B derivatives” (Board of Trustees of the University of Arkansas, priority 2013, dated 2018).
Read-outs that look alike come from different tables or passages of the source.

C=C1C(=O)O[C@H]2[C@H]1CC/C(COC(=O)c1cc3ccccc3[nH]1)=C\CC[C@@]1(C)O[C@@H]21 [BS-1-28]
CC50 (OVCAR-8): 64600 nM | Percent Growth (OVCAR-8; OVCAR-8, Log10 Concentration −4.0): −63% | Percent Growth (OVCAR-8; OVCAR-8, Log10 Concentration −5.0): 5% | Percent Growth (OVCAR-8; OVCAR-8, Log10 Concentration −6.0): 69% | Percent Growth (OVCAR-8; OVCAR-8, Log10 Concentration −7.0): 63% | Percent Growth (OVCAR-8; OVCAR-8, Log10 Concentration −8.0): 58% | GI50 (OVCAR-8; OVCAR-8, NCI five dose): 1990 nM | TGI (OVCAR-8; OVCAR-8, NCI five dose): 1.19E−4 | CC50 (NCI/ADR-RES): > 100000 nM | Percent Growth (NCI/ADR-RES; NCl/ADR-RES, Log10 Concentration −4.0): −43% | Percent Growth (NCI/ADR-RES; NCl/ADR-RES, Log10 Concentration −5.0): −2% | Percent Growth (NCI/ADR-RES; NCl/ADR-RES, Log10 Concentration −6.0): 77% | Percent Growth (NCI/ADR-RES; NCl/ADR-RES, Log10 Concentration −7.0): 100% | Percent Growth (NCI/ADR-RES; NCl/ADR-RES, Log10 Concentration −8.0): 99% | GI50 (NCI/ADR-RES; NCl/ADR-RES, NCI five dose): 2200 nM | TGI (NCI/ADR-RES; NCl/ADR-RES, NCI five dose): 9.42E−6 | CC50 (A498): 5630 nM | Percent Growth (A498; A498, Log10 Concentration −4.0): −95% | Percent Growth (A498; A498, Log10 Concentration −5.0): −99% | Percent Growth (A498; A498, Log10 Concentration −6.0): 97% | Percent Growth (A498; A498, Log10 Concentration −7.0): 102% | Percent Growth (A498; A498, Log10 Concentration −8.0): 110% | GI50 (A498; A498, NCI five dose): 1740 nM | TGI (A498; A498, NCI five dose): 3.43E−6 | CC50 (RXF 393): 6230 nM | Percent Growth (RXF 393; RXF 393, Log10 Concentration −4.0): −65% | Percent Growth (RXF 393; RXF 393, Log10 Concentration −5.0): −77% | Percent Growth (RXF 393; RXF 393, Log10 Concentration −6.0): 54% | Percent Growth (RXF 393; RXF 393, Log10 Concentration −7.0): 85% | Percent Growth (RXF 393; RXF 393, Log10 Concentration −8.0): 73% | GI50 (RXF 393; RXF 393, NCI five dose): 1070 nM | TGI (RXF 393; RXF 393, NCI five dose): 2.58E−6
